Values joined by “and” are separate entries in the source; they are usually repeats but may differ in a detail not shown here. Identical values can stand only once.
Assays:
Format in all cases: cell-based, human
[1] = tested on: 22Rv1 cells; test: Anti-proliferation activity assay (CCK8, 72 h); settings: for optical density / Relative proliferation rate (%) mean / Relative proliferation rate (%): 22Rv1; for optical density / Relative proliferation rate (%): replicates
[2] = tested on: PC-3 cells; test: Cell growth assay (5-day course); settings: for Relative proliferation rate mean / Relative proliferation rate / optical density: PC-3; for Relative proliferation rate / optical density: replicates
[3] = tested on: DU145 cells; test: Cell growth assay (5-day course)
[4] = tested on: 22Rv1 cells; test: Cell growth assay (5-day course)
[5] = tested on: PC-3 cells; test: Invasion assay (transwell); settings: for Cell invasion (cell number): PC-3, replicates
[6] = tested on: DU145 cells; test: Invasion assay (transwell); settings: for Cell invasion (cell number): replicates

SMILES: CCN1CCN(C(=O)c2ccc(Nc3ncc(F)c(-c4ccc5nc(N(C)C)sc5c4)n3)nc2)CC1 [YK-2-69]
- optical density ([1]; 1.25 uM): 0.423 and 0.49 and 0.446
- Relative proliferation rate (%) mean ([1]; 5 uM): 68.233%
- Relative proliferation rate (%) ([1]; 5 uM): 72.38% and 64.0824% and 68.2365%
- optical density ([1]; 5 uM): 0.282 and 0.366 and 0.317
- Relative proliferation rate (%) mean ([1]; 20 uM): 73.6982%
- Relative proliferation rate (%) ([1]; 20 uM): 76.5916% and 70.7556% and 73.7475%
- optical density ([1]; 20 uM): 0.239 and 0.298 and 0.262
- Relative proliferation rate (%) mean ([1]; 80 uM): 89.3325%
- Relative proliferation rate (%) ([1]; 80 uM): 93.7316% and 84.8871% and 89.3788%
- optical density ([1]; 80 uM): 0.064 and 0.154 and 0.106
- inhibitory activity against proliferation (in words) ([1]; 22Rv1 cells): potent inhibitory activity
- Relative proliferation rate mean ([2]; 1 µM, day 0): 1
- Relative proliferation rate ([2]; 1 µM, day 0): 1
- optical density ([2]; 1 µM, day 0): 0.270
- Relative proliferation rate mean ([2]; 1 µM, day 1): 1.314
- Relative proliferation rate ([2]; 1 µM, day 1): 1.339 and 1.335 and 1.268
- optical density ([2]; 1 µM, day 1): 0.361 and 0.36 and 0.342
- Relative proliferation rate mean ([2]; 1 µM, day 2): 1.774
- Relative proliferation rate ([2]; 1 µM, day 2): 1.713 and 1.81 and 1.799
- optical density ([2]; 1 µM, day 2): 0.462 and 0.488 and 0.485
- Relative proliferation rate mean ([2]; 1 µM, day 3): 3.173
- Relative proliferation rate ([2]; 1 µM, day 3): 3.23 and 3.148 and 3.141
- optical density ([2]; 1 µM, day 3): 0.871 and 0.849 and 0.847
- Relative proliferation rate mean ([2]; 1 µM, day 4): 6.7021
- Relative proliferation rate ([2]; 1 µM, day 4): 6.623 and 6.6712 and 6.812
- optical density ([2]; 1 µM, day 4): 1.786 and 1.799 and 1.837
- Relative proliferation rate mean ([2]; 2 µM, day 0): 1
- Relative proliferation rate ([2]; 2 µM, day 0): 1
- optical density ([2]; 2 µM, day 0): 0.273
- Relative proliferation rate mean ([2]; 2 µM, day 1): 1.2692
- Relative proliferation rate ([2]; 2 µM, day 1): 1.28 and 1.295 and 1.233
- optical density ([2]; 2 µM, day 1): 0.35 and 0.354 and 0.337
- Relative proliferation rate mean ([2]; 2 µM, day 2): 1.697
- Relative proliferation rate ([2]; 2 µM, day 2): 1.752 and 1.668 and 1.672
- optical density ([2]; 2 µM, day 2): 0.479 and 0.456 and 0.457
- Relative proliferation rate mean ([2]; 2 µM, day 3): 2.625
- Relative proliferation rate ([2]; 2 µM, day 3): 2.612 and 2.575 and 2.688
- optical density ([2]; 2 µM, day 3): 0.714 and 0.704 and 0.735
- Relative proliferation rate mean ([2]; 2 µM, day 4): 5.619
- Relative proliferation rate ([2]; 2 µM, day 4): 5.662 and 5.571 and 5.625
- optical density ([2]; 2 µM, day 4): 1.548 and 1.523 and 1.538
- Relative proliferation rate mean ([2]; 4 µM, day 0): 1
- Relative proliferation rate ([2]; 4 µM, day 0): 1
- optical density ([2]; 4 µM, day 0): 0.274
- Relative proliferation rate mean ([2]; 4 µM, day 1): 1.161
- Relative proliferation rate ([2]; 4 µM, day 1): 1.103 and 1.191 (2×)
- optical density ([2]; 4 µM, day 1): 0.302 and 0.326 (2×)
- Relative proliferation rate mean ([2]; 4 µM, day 2): 1.646
- Relative proliferation rate ([2]; 4 µM, day 2): 1.545 and 1.706 and 1.687
- optical density ([2]; 4 µM, day 2): 0.423 and 0.467 and 0.462
- Relative proliferation rate mean ([2]; 4 µM, day 3): 1.9905
- Relative proliferation rate ([2]; 4 µM, day 3): 2.023 and 1.947 and 2.001
- optical density ([2]; 4 µM, day 3): 0.554 and 0.533 and 0.548
- Relative proliferation rate mean ([2]; 4 µM, day 4): 3.8824
- Relative proliferation rate ([2]; 4 µM, day 4): 3.992 and 3.985 and 3.671
- optical density ([2]; 4 µM, day 4): 1.093 and 1.091 and 1.005
- cell proliferation, 5-day course/colony (in words) ([2]; PC-3 cells, dose-dependent): significantly inhibited the cell proliferation
- Relative proliferation rate mean ([3]; DU145, 4 μM, day 1): 1.572
- Relative proliferation rate mean ([3]; DU145, 4 μM, day 2): 2.148
- Relative proliferation rate mean ([3]; DU145, 4 μM, day 3): 4.361
- Relative proliferation rate mean ([3]; DU145, 4 μM, day 4): 5.61
- Relative proliferation rate mean ([3]; DU145, 8 μM, day 1): 1.538
- Relative proliferation rate mean ([3]; DU145, 8 μM, day 2): 2.008
- Relative proliferation rate mean ([3]; DU145, 8 μM, day 3): 3.775
- Relative proliferation rate mean ([3]; DU145, 8 μM, day 4): 4.448
- Relative proliferation rate mean ([3]; DU145, 12 μM, day 1): 1.322
- Relative proliferation rate mean ([3]; DU145, 12 μM, day 2): 1.207
- Relative proliferation rate mean ([3]; DU145, 12 μM, day 3): 1.763
- Relative proliferation rate mean ([3]; DU145, 12 μM, day 4): 2.506
- cell proliferation, 5-day course/colony (in words) ([3]; DU145 cells, dose-dependent): significantly inhibited the cell proliferation
- Relative proliferation rate mean ([4]; 22Rv1, 0.5 µM, day 1): 1.179
- Relative proliferation rate mean ([4]; 22Rv1, 0.5 µM, day 2): 1.871
- Relative proliferation rate mean ([4]; 22Rv1, 0.5 µM, day 3): 2.62
- Relative proliferation rate mean ([4]; 22Rv1, 0.5 µM, day 4): 3.018
- Relative proliferation rate mean ([4]; 22Rv1, 1 µM, day 1): 1.007
- Relative proliferation rate mean ([4]; 22Rv1, 1 µM, day 2): 1.59
- Relative proliferation rate mean ([4]; 22Rv1, 1 µM, day 3): 1.919
- Relative proliferation rate mean ([4]; 22Rv1, 1 µM, day 4): 2.135
- Relative proliferation rate mean ([4]; 22Rv1, 2 µM, day 1): 0.9977
- Relative proliferation rate mean ([4]; 22Rv1, 2 µM, day 2): 1.414
- Relative proliferation rate mean ([4]; 22Rv1, 2 µM, day 3): 1.775
- Relative proliferation rate mean ([4]; 22Rv1, 2 µM, day 4): 1.902
- cell proliferation, 5-day course/colony (in words) ([4]; 22Rv1 cells, dose-dependent): significantly inhibited the cell proliferation
- Cell invasion (cell number) ([5]; 1 µM): 2987 cell number and 3005 cell number and 2946 cell number
- Cell invasion (cell number) ([5]; 2 µM): 2589 cell number and 2699 cell number and 2710 cell number
- Cell invasion (cell number) ([5]; 4 µM): 489 cell number and 503 cell number and 468 cell number
- invasion (in words) ([5]; PC-3 cells, dose-dependent): remarkably inhibited the migration and invasion
- Cell invasion (cell number) ([6]; DU145, 2 μM): 340 cell number and 358 cell number and 328 cell number
- Cell invasion (cell number) ([6]; DU145, 4 μM): 258 cell number and 240 cell number and 252 cell number
- Cell invasion (cell number) ([6]; DU145, 8 μM): 87 cell number and 91 cell number and 82 cell number
- invasion (in words) ([6]; DU145 cells, dose-dependent): remarkably inhibited the migration and invasion
